Measured values published in patent US10836732B2, “Compounds for combating arthropods” (priority 2013, dated 2020).

Experiments:
[1] = test system: Ctenocephalides felis; assay: Ctenocephalides felis - oral test (CTECFE); format: in vivo; conditions: 20 ppm in citrated cattle blood, adult cat fleas, after 2 days
Description: (§1) Solvent: dimethyl sulphoxide
For the purpose of producing an appropriate active ingredient formulation, 10 mg of active ingredient are mixed with 0.5 ml of dimethyl sulphoxide. Dilution with citrated cattle blood gives the desired concentration.
About 20 unfed adult cat fleas (Ctenocephalides felis) are placed into a chamber which is closed at the top and bottom with gauze. A metal cylinder whose bottom end is closed with parafilm is placed onto the chamber. The cylinder contains the blood/active ingredient preparation, which can be imbibed by the fleas through the parafilm membrane.
After 2 days, the kill in % is determined 100% means that all of the fleas have been killed; 0% means that none of the fleas have been killed.

[2] = test system: Anopheles funestus strain FUMOZ-R; assay: Anopheles test (ANPHFU surface treatment); format: in vivo; conditions: Anopheles funestus, read-out: efficacy (mortality in %)
Description: Solvent: acetone+2000 ppm rapeseed oil methyl ester (RME)
To produce an appropriate active ingredient formulation, the active ingredient is dissolved in the solvent (2 mg/ml). The active ingredient formulation is pipetted onto a glazed tile and, after it has dried off, adult mosquitoes of the species Anopheles funestus strain FUMOZ-R (Hunt et al., Med Vet Entomol. 2005 September; 19(3):271-5) are placed onto the treated tile. The exposure time is 30 minutes.
24 hours after contact with the treated surface, mortality in % is determined 100% means that all mosquitoes have been killed; 0% means that none of the mosquitoes have been killed.

[3] = logP by HPLC on reversed-phase column (C18), EEC Directive 79/831 Annex V.A8; format: physicochemical; conditions: HPLC, reversed-phase C18, acetonitrile (0.1% formic acid)/water (0.09% formic acid) gradient
[4] = test system: Boophilus microplus Parkhurst strain, SP-resistant; assay: Boophilus microplus - dip test; format: in vivo; conditions: 100 ppm, adult engorged female cattle ticks, after 7 days
Description: Test animals: cattle ticks (Boophilus microplus) Parkhurst strain, SP-resistant
as §1
10 mg of active ingredient are dissolved in 0.5 ml of dimethyl sulphoxide. For the purpose of producing a suitable formulation, the active ingredient solution is diluted with water to the concentration desired in each case.
This active ingredient formulation is pipetted into tubes. 8-10 adult engorged female cattle ticks (Boophilus microplus) are transferred into a further tube with holes. The tube is immersed into the active ingredient formulation, and all the ticks are completely wetted. After the liquid has run out, the ticks are transferred on filter discs into plastic dishes and stored in a climate-controlled room.
(§2) Efficacy is assessed after 7 days by laying of fertile eggs. Eggs which are not visibly fertile are stored in a climate-controlled cabinet until the larvae hatch after about 42 days. An efficacy of 100% means that none of the ticks has laid any fertile eggs; 0% means that all the eggs are fertile.

[5] = test system: Musca domestica; assay: Musca domestica test (MUSCDO); format: in vivo; conditions: 20 ppm, adult houseflies, after 2 days
Description: as §1
(§3) To produce an appropriate active ingredient formulation, 10 mg of active ingredient are mixed with 0.5 ml of dimethyl sulphoxide, and the concentrate is diluted with water to the desired concentration.
Vessels containing a sponge treated with sugar solution and the active ingredient formulation of the desired concentration are populated with 10 adult houseflies (Musca domestica).
After 2 days, the kill in % is determined 100% means that all of the flies have been killed or knocked down; 0% means that none of the flies have been killed or knocked down.

[6] = test system: Lucilia cuprina; assay: Lucilia cuprina test (LUCICU); format: in vivo; conditions: 20 ppm, L1 larvae, after 2 days
Description: as §1, §3
About 20 L1 larvae of the Australian sheep blowfly (Lucilia cuprina) are transferred into a test vessel containing minced horsemeat and the active ingredient preparation of the desired concentration.
After 2 days, the kill in % is determined 100% means that all the larvae have been killed; 0% means that none of the larvae have been killed.

[7] = test system: Rhipicephalus sanguineus; assay: Rhipicephalus sanguineus - in vitro contact tests with brown dog ticks (RHIPSA); format: in vivo; conditions: 1 μg/cm^2, adult ticks, after 48 h
Description: For the coating of the test tubes, 9 mg of active ingredient are first dissolved in 1 ml of acetone p.a. and then diluted to the desired concentration with acetone p.a. 250 μl of the solution are distributed homogeneously on the inner walls and base of a test tube (25 ml crimp top vial (Fisher Scientific, Order No. 320 55 60) by turning and rocking on a “Rock ‘n’ Roller” (Model L202, Labinco; rocking rotation at 30 rpm in a fume hood for 2 h). With 900 ppm active ingredient solution and internal surface area 44.7 cm^2, given homogeneous distribution, an area-based dose of 5 μg/cm^2 is achieved.
Preparation examples for the inventive halogen-substituted compounds of the formula (I) are tested for their contact efficiency with ectoparasitic arachnids (brown dog ticks here). For this purpose, crimp top vials are coated with 250 μl of an acetone solution of the active ingredient as described above. […] After 48 h, efficacy (knockdown and mortality) and mortality are determined To this end, the ticks are knocked to the floor of the tube and incubated on a hotplate at 45-50° C. for not more than 5 min Ticks which remain motionless on the floor or move in such an uncoordinated manner that they are unable to deliberately avoid the heat by climbing upwards are considered to be dead or knocked down (moribund).

[8] = test system: Boophilus microplus; assay: Boophilus microplus - injection test; format: in vivo; conditions: 20 μg/animal, injected into engorged adult female cattle ticks, after 7 days
Description: as §1
To produce an appropriate active ingredient formulation, 10 mg of active ingredient are mixed with 0.5 ml of solvent and the concentrate is diluted with solvent to the desired concentration.
1 μl of the active ingredient solution is injected into the abdomen of 5 engorged adult female cattle ticks (Boophilus microplus). The animals are transferred into dishes and kept in a climate-controlled room.
as §2

[9] = test system: Rhipicephalus sanguineus; assay: Rhipicephalus sanguineus - in vitro contact tests with adult brown dog ticks; format: in vivo; conditions: 5 μg/cm^2, adult dog ticks, after 48 h
Description: For the coating of the test tubes, 9 mg of active ingredient are first dissolved in 1 ml of acetone p.a. and then diluted to the desired concentration with acetone p.a. 250 μl of the solution are distributed homogeneously on the inner walls and base of a 25 ml test tube by turning and rocking on an orbital shaker (rocking rotation at 30 rpm for 2 h). With 900 ppm active ingredient solution and internal surface 44.7 cm^2, given homogeneous distribution, an area-based dose of 5 μg/cm^2 is achieved.
After the solvent has evaporated off, the tubes are populated with 5-10 adult dog ticks (Rhipicephalus sanguineus), sealed with a perforated plastic lid and incubated in a horizontal position in the dark at room temperature and ambient humidity. After 48 h, efficacy is determined To this end, the ticks are knocked to the floor of the tube and incubated on a hotplate at 45-50° C. for not more than 5 min Ticks which remain motionless on the floor or move in such an uncoordinated manner that they are unable to deliberately avoid the heat by climbing upwards are considered to be dead or moribund.
An efficacy of 100% means that all the ticks were dead or moribund. 0% efficacy means that none of the ticks had been harmed.

Cc1cc(C(F)(C(F)(F)F)C(F)(F)F)cc(C)c1-c1cn(-c2ccc(Cl)c(C(=O)NC3CC3)c2)nn1 [I-T48-1, 2-chloro-N-cyclopropyl-5-[4-[2,6-dimethyl-4-[1,2,2,2-tetrafluoro-1-(trifluoromethyl)ethyl]phenyl]triazol-1-yl]benzamide]
90 to 100%: mortality at 100 mg/m2 [2]
100%: efficacy (kill in %) [1] | efficacy (no fertile eggs laid) [4] | efficacy (killed or knocked down) [5] | efficacy (kill in %) [6] | efficacy (dead or knocked down) [7] | efficacy (no fertile eggs laid) [8] | efficacy (dead or moribund) [9]
4.19: chromatographic logP [3]
